For one series, the system named is β-tubulin. As to the kind of experiment: Cellular thermal shift assay (CETSA), β-tubulin target engagement. It counts as binding, human. To be noted: fresh VTC-037 GSC lysates, 3-fold dilutions 222.2-2.7 nM, 1 h, heat challenge 57 °C (Tagg(75)) 20 min, immunoblot, normalized to DMSO control. The method, then: For an initial determination of the melting profile of α- and β- tubulin, fresh lysates of GSCs prepared in non-denaturing buffer were dispensed into 96-well PCR plate in stem cell medium (approximately 10,000 cells/well/50 µl), and then subjected to temperature gradient (37–65 °C) for 20 min. Subsequently, centrifugation was performed at 14,000 rpm to sediment the unstable protein content. Supernatant was collected and SDS-PAGE gel was run, and immunodetection was performed to detect α- and β- tubulin using specific primary antibodies described above. A rabbit antibody against β-actin (Cell Signaling Technology; 4970) was used as negative control. Band intensities were quantified on LI-COR C-DiGit Blot Scanner, and subsequently Tagg(50) and Tagg(75) values were calculated for α- and β- tubulin. In a subsequent run, fresh lysates of GSCs were treated at various doses with 3-fold dilutions (222.2, 74.0, 24.7, 8.2 and 2.7 nM) of peptides JM2 and JM2-scrambled, together with DMSO as control, for 1 h. Samples were then subjected to heat challenge at 57 °C for 20 min, and unstable protein was removed by centrifugation step. Following an immunoblotting step, band intensities of the stable tubulin was quantified, and normalized to DMSO control. EC50 values of engagement for both peptide with α- and β- tubulin were subsequently calculated.
For orientation: In western blotting, separated proteins are transferred to a membrane and probed.

Another series deals with VTC-034 GSCs. As to the kind of experiment: Peptide uptake by confocal fluorescence microscopy, VTC-034 GSCs. The format is in vitro ADME, human. To be noted: 50 μM, 24 h, fluorophore-conjugated streptavidin. The protocol: Cells were washed once with warm PBS before fixing in 4% paraformaldehyde for 20 min at room temperature or ice-cold methanol for 5 min on ice, washed twice, and held in PBS at 4°C until immunostaining was conducted. Cells were permeabilized and blocked in 5% normal goat or donkey serum (Fisher Scientific) and 0.1% Triton X-100 in PBS for 2 h at room temperature. Primary antibodies rabbit anti-Cx43 (MilliporeSigma; C6219), mouse anti-pan Cadherin (MilliporeSigma; C1821), or mouse anti-α-tubulin (MilliporeSigma; T6199) were diluted in blocking buffer and labeling was performed overnight at 4 °C. Cells were washed six times with PBS (2 × quick, 2 × 10 min, 2 × 5 min) prior to incubating with goat anti-mouse or -rabbit IgG secondary antibodies (Thermo Fisher) conjugated to Alexa Fluor 488 (A-11029; A-11034), Alexa Fluor 555 (A-21424; A-21429), or Alexa Fluor 647 (A-21236; A-21245) for confocal; or donkey anti-mouse or -rabbit IgG secondary antibodies conjugated to CF568 (Biotium; 20105 and 20098) or Alexa Fluor 647 (Jackson Immunoresearch; 715-605-151 and 711-605-152) for stochastic optical reconstruction microscopy (STORM; see section below), for 1 h at room temperature. DAPI (Thermo Fisher) was included with secondary antibodies to counterstain nuclei for confocal only and was omitted from labeling for STORM. […]

The next series concerns PDX GBM22 tumor. The experiment in a line: PDX GBM22 tumor growth in mouse flank. To be noted: 300 μM intratumorally every day for 14 days, n = 7 mice per group. The format is in vivo, mouse (athymic nude), human GBM22 cells. The method, then:
Animal studies were approved by the Institutional Animal Care and Use Committee (IACUC) of Virginia Tech. Female athymic nude mice (Envigo) aged 6-8 weeks were used for the maintenance and propagation of PDX GBM22 cells. PDX GBM22 tumors were maintained by serial passage in nude mouse flanks as described previously. Briefly, tumors were harvested 14–18 days post-injection and glioblastoma cells were mechanically and enzymatically dissociated. […] After 2 days, tumors were measured and mice were randomly separated into three groups (7 mice per group), and vehicle/control (PBS), JM2-scrambled or JM2 were administered at 300 μM intratumorally every day for 14 days. Tumors were then measured by blinded investigators and harvested for analysis (see section below). Tumor volume was calculated using the formula (length × width^2)/2. […] After 7 days, tumors were measured and mice were randomly separated into three groups; vehicle/control (PBS), JM2-scrambled, and JM2 (3 mice per group). […] Tumor sizes were measured by electronic calipers at different times by blinded investigators, and tumor volume was calculated using the formula (length × width^2)/2.

In general, EC50 refers to the concentration giving half of the maximal effect.

VFFKGVKDRVKGRSD [JM2]: the EC50 in the series on β-tubulin is 7.9 nM. In addition, the “Peptide localization after uptake” value in the series with VTC-034 GSCs is “localized within the cytoplasm of GSCs”. Also, the GBM22-derived tumor growth entry with PDX GBM22 tumor is reported as “did not detect any significant tumor growth”.

On to “GSDVFKRKFVDRKVG [JM2-scrambled, reference compound]”, for which the EC50 in the series with β-tubulin is > 200 nM. Further, in the series with VTC-034 GSCs, the “Peptide localization after uptake” value is listed as “localized within the cytoplasm of GSCs”. Moreover, the GBM22-derived tumor growth entry in the series with PDX GBM22 tumor is recorded as “observed GBM22-derived tumor formation”.
